In the experiment the target is T1, hNpr1 (Homo sapiens, UniProt P16066).
T1 sequence (P16066 33-1061): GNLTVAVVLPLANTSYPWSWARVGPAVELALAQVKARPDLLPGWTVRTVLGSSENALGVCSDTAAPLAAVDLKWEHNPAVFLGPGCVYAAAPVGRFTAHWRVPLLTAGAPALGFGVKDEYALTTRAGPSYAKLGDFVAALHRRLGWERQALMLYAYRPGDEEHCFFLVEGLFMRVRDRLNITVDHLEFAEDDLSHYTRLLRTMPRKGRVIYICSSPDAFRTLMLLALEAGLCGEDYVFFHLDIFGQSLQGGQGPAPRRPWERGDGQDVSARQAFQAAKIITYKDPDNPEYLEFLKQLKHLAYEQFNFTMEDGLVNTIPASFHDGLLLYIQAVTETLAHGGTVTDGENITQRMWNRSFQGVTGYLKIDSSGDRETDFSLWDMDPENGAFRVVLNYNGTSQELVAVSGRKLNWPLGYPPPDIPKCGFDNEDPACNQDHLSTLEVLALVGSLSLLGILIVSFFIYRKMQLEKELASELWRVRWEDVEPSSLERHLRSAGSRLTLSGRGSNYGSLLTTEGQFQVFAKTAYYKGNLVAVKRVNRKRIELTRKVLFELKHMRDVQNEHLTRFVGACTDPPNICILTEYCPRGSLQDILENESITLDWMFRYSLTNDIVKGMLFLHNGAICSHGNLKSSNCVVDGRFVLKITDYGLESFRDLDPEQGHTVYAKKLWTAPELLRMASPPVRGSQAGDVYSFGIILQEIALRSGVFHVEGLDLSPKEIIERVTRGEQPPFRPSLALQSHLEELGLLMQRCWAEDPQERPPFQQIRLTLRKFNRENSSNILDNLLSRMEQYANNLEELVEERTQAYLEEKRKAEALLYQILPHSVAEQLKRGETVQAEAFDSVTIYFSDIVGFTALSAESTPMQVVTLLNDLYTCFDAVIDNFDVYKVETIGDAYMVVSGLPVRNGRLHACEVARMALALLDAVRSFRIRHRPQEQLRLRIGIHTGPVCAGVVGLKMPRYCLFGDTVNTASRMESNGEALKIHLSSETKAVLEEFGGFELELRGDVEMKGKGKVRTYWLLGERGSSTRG
Nature of the experiment: qHTS GloSensor cGMP assay, hNppa-stimulated HEK-hNpr1-cGMP-sensor cells (1536-well). The format is cell-based. As to conditions: for Imax, HEK-hNpr1-cGMP-sensor cells: −100% = 38.3 μM A-71915; for Inhibition of hNppa-induced hNpr1 activity (in words): HEK-hNpr1-cGMP-sensor cells. An excerpt:
In order to identify small molecular compounds that inhibit the Npr1 receptor a high-throughput assay to probe inhibition of the receptor guanylate cyclase Npr1 was developed. The assay was designed taking advantage of Promega's GloSensor™ technology (Promega, Madison, Wis.). This technology involves the expression of a cyclic guanosine monophosphate (cGMP) biosensor, comprised of a firefly luciferase variant that was coupled to the cGMP binding domain of human phosphodiesterase 5A, and loading of cells with a cell-permeable luciferase substrate to monitor cGMP production by Npr1 in real time in live cells. Briefly, human embryonic kidney 293 cells stably expressing the human Npr1 and the pGloSensor™-40F cGMP vector (“pGloSensor™-40F”) were generated. Stimulating these cells with the Npr1 agonists human NppA or NppB, luciferase-induced light production could be detected in a dose-dependent manner. HEK293 cells stably expressing human Npr2 and pGS-40F and cells only expressing pGS-40F were also generated to conduct secondary counter screens. In these cells, NppC or sodium nitroprusside were used to stimulate Npr2 or soluble guanylate cyclase which is endogenously expressed in HEK293 cells, respectively. The Npr2-NppC counter screen was employed to search for agents that minimally effected this agonist-receptor interaction. The Npr2-NppC system was used because the side effects of most drugs occur on related receptors. Npr1 and Npr2 are the most related receptors in sequence and function and there are no additional active receptor subtypes in this family of receptors. The procedure is described in detail below.
Measurement of intracellular cGMP production in HEK-hNpr1-cGMP-sensor cells was scaled to 4 μl volumes in 1536-well format and primary screening was performed in an automated manner in 7- to 11-point qHTS. Cells (1.5×10^3) were plated in assay medium in white, solid bottom TC treated 1536-well plates (Greiner Bio-One) with a Multidrop™ Combi Reagent Dispenser (Thermo Fisher Scientific). Cells were incubated at 37° C., 5% CO2 and 95% humidity for 16 hours and 1 μl of GloSensor™ reagent at a final assay concentration of 2% or assay medium as background control was added to respective wells with a BioRAPTR Flying Reagent Dispenser™ (Beckman Coulter, Schaumburg, Ill.). Cells were incubated at room temperature for 2 hours, protected from light. Compound (23 nl) was transferred by a pintool (Kalypsys, San Diego, Calif.) in the concentration range of […] to 46.1 μM along with DMSO and a titration of A-71915 from top concentration 38.3 μM to 1.7 nM in columns 1-4 of each plate as vehicle and positive controls, respectively. Cells were incubated with compound for 30 minutes at room temperature, protected from light. Pre-agonist luminescence for each plate was read on a ViewLux™ plate reader (PerkinElmer). Human NppA (1 μl) at a final assay concentration of 0.1 nM, or C02-independent media were added to respective wells with a BioRAPTR Flying Reagent Dispenser™ (Beckman Coulter). Plates were incubated for 20 minutes at room temperature, protected from light, and luminescence was read on a ViewLux™ plate reader.
Pre-agonist and post-agonist data were normalized by plate to corresponding intra-plate controls as described in Inglese et al., PNAS USA, 103: 11473-11478 (2006) (which is incorporated herein by reference, in its entirety). Assay statistics including S:N and Z′ were calculated using the same respective controls. Pre-agonist data were normalized to the average signal of DMSO-treated wells with 2% GoSensor™ reagent as 0% and the average signal of DMSO-treated wells with assay medium as −100% activity. Post-agonist data were normalized to the average signal of DMSO-treated wells with 2% GoSensor™ reagent and 0.1 nM hNppA as 0% and the average signal of wells treated with 38.3 μM A-71915 with 2% GloSensor™ reagent and 0.1 nM hNppA as −100% activity. […]
Background: In qHTS, concentration-response curves come from the screen itself.

The mark [1] stands for this setting: Table 1, cell-based GloSensor assay of hNpr1 inhibition, read-out: IC50 GloSensor™ assay.
Setting [2] is: qHTS follow-up, hNppa-stimulated, four-parameter fit, read-out: IC50, HEK-hNpr1-cGMP-sensor cells.
Setting [3] is: qHTS follow-up, hNppa-stimulated.

Each structure is given as a SMILES string. “Also recorded” adds a separate entry of the source. Read-outs that look alike come from different tables or passages of the source.

In general, IC50 refers to the midpoint of a concentration-inhibition curve. With `Cl.O=C1Nc2ccccc2CN(CC2CCCCC2)C12CCNCC2` [JS-1, 4-(cyclohexylmethyl)-4,5-dihydrospiro[benzo[e][1,4]diazepine-3,4′-piperidin]-2(1H)-one hydrochloride], the IC50 was found to be 7.31 µM under setting [1] and 26 ± 1.5 µM under setting [2]. The “Imax, HEK-hNpr1-cGMP-sensor cells” value under setting [3] is reported as −119 ± 20%.
On the same counts, the results for `O=C(Cc1ccc(Cl)cc1)N1Cc2ccccc2CC2(CCCN2CC2CCNC2)C1` (stereo not drawn) [JS-2, 2-(4-chlorophenyl)-1-(1′-(pyrrolidin-3-ylmethyl)-1,5-dihydrospiro[benzo[c]azepine-4,2′-pyrrolidin]-2(3H)-yl)ethan-1-one] are 13 µM, 25 ± 1.3 µM and −102 ± 9%.
With `CCC(CC)c1cc([C@H]2CN3CC[C@H]2C[C@@H]3CNS(=O)(=O)c2cccs2)nc(-c2ccncc2)n1` [JS-3, N-(((2R,4S,5R)-5-(6-(pentan-3-yl)-2-(pyridin-4-yl)pyrimidin-4-yl)quinuclidin-2-yl)methyl)thiophene-2-sulfonamide], the IC50 by setting is: under setting [1], 14.1 µM; under setting [2], 62 ± 19 µM. The “Imax, HEK-hNpr1-cGMP-sensor cells” value under setting [3] is reported as −183 ± 67%.
For the compound `COc1cc(CN2CCC(C)(NC(C)=O)CC2)cc(-c2ccncc2)c1` [JS-4, N-(1-(3-methoxy-5-(pyridin-4-yl)benzyl)-4-methylpiperidin-4-yl)acetamide], the 50% inhibitory concentration (IC50) came to 14.1 µM under setting [1] and 16 ± 13 µM under setting [2]. Under setting [3], the “Imax, HEK-hNpr1-cGMP-sensor cells” value is −110 ± 10%.
Take `Cc1noc(C)c1-c1cc(-c2ccccc2Oc2ccccc2)cn2cncc12` [JS-5, 3,5-dimethyl-4-(6-(2-phenoxyphenyl)imidazo[1,5-a]pyridin-8-yl)isoxazole]: the “Inhibition of hNppa-induced hNpr1 activity (in words)” value (from here on “Inhibition”) is reported as “inhibit hNpr1 activity; also recorded: inhibits hNppa-induced hNpr1 activity; also recorded: antagonizes natriuretic peptide-induced activation”. Besides, the IC50 under setting [1] was determined as 28.2 µM. For the same compound, under setting [2], the IC50 is 32 ± 13 µM. The “Imax, HEK-hNpr1-cGMP-sensor cells” value under setting [3] was −127 ± 12%.
Turning to `COc1ccccc1-c1n[nH]c2ncc(C(=O)NCc3cccnc3)nc12` [JS-6, 3-(2-methoxyphenyl)-N-(pyridin-3-ylmethyl)-1H-pyrazolo[3,4-b]pyrazine-5-carboxamide], the IC50 is, setting by setting: under setting [1], 11.2 µM; under setting [2], 24 ± 1.2 µM. The “Imax, HEK-hNpr1-cGMP-sensor cells” value under setting [3] was −15 ± 3%.
The like results for `O=C(NCc1cccnc1)c1cnc2[nH]nc(-c3ccccc3)c2n1` [JS-7, 3-phenyl-N-(pyridin-3-ylmethyl)-1H-pyrazolo[3,4-b]pyrazine-5-carboxamide] were, in that order, 22.4 µM, 85 ± 22 µM and −216 ± 97%.
Regarding `Cc1nn2c(c1-c1ccccc1OCc1ccccc1)N(C(=O)Cc1ccc3c(c1)OCO3)CCC2` [JS-8, 2-(benzo[d][1,3]dioxol-5-yl)-1-(3-(2-(benzyloxy)phenyl)-2-methyl-6,7-dihydropyrazolo[1,5-a]pyrimidin-4(5H)-yl)ethan-1-one], the “Inhibition” value is recorded as “inhibit hNpr1 activity; also recorded: inhibits hNppa-induced hNpr1 activity; also recorded: antagonizes natriuretic peptide-induced activation”. The IC50 under setting [1] was 8.91 µM. Also, the IC50 under setting [2] worked out at 13 ± 1.2 µM. Besides, the “Imax, HEK-hNpr1-cGMP-sensor cells” value under setting [3] is recorded as −122 ± 9%.
For the compound `Cc1nn2c(c1-c1ccccc1OCc1ccccc1)N(C(=O)Cc1ccccn1)CCC2` [JS-9, 1-(3-(2-(benzyloxy)phenyl)-2-methyl-6,7-dihydropyrazolo[1,5-a]pyrimidin-4(5H)-yl)-2-(pyridin-2-yl)ethan-1-one], the IC50 by setting is: under setting [1], 8.91 µM; under setting [2], 35 ± 15 µM. In addition, under setting [3], the “Imax, HEK-hNpr1-cGMP-sensor cells” value is recorded as −106 ± 18%.
As for `Cc1nn2c(c1-c1ccccc1Oc1ccccc1)N(C(=O)Cc1ccc3c(c1)OCO3)CCC2` [JS-10, 2-(benzo[d][1,3]dioxol-5-yl)-1-(2-methyl-3-(2-phenoxyphenyl)-6,7-dihydropyrazolo[1,5-a]pyrimidin-4(5H)-yl)ethan-1-one], the IC50 under setting [1] was found to be 7.94 µM and the IC50 under setting [2] was found to be 17 ± 1.3 µM. For the same compound, the “Imax, HEK-hNpr1-cGMP-sensor cells” value under setting [3] is −122 ± 12%.
With `Cc1cc(CNC(=O)c2ccc3c(c2)n(CC2CC2)c(=O)n3C2CCCCC2)on1` [JS-11, 1-cyclohexyl-3-(cyclopropylmethyl)-N-((3-methylisoxazol-5-yl)methyl)-2-oxo-2,3-dihydro-1H-benzo[d]imidazole-5-carboxamide], the “Inhibition” value is given as “inhibit hNpr1 activity; also recorded: inhibits hNppa-induced hNpr1 activity; also recorded: antagonizes natriuretic peptide-induced activation”. The IC50 under setting [1] was found to be 5.62 µM. Under setting [2], the IC50 amounted to 21 ± 1.3 µM. For the same compound, under setting [3], the “Imax, HEK-hNpr1-cGMP-sensor cells” value is −140 ± 13%.
As to `COc1ccc(C2(C(=O)N3CCC4(CC3)c3nccn3-c3ccccc3CN4C)CC2)cc1` [JS-12, (1-(4-methoxyphenyl)cyclopropyl)(5-methyl-5,6-dihydrospiro[benzo[f]imidazo[1,2-a][1,4]diazepine-4,4′-piperidin]-1′-yl)methanone], the IC50 is, setting by setting: under setting [1], 8.91 µM; under setting [2], 16 ± 1.3 µM. Further, the “Imax, HEK-hNpr1-cGMP-sensor cells” value under setting [3] is −116 ± 11%.
For the compound `N#Cc1ccccc1CN1CCCC(C(=O)NCc2ccccc2)CCNC(=O)CC1` (stereo not drawn) [JS-13, N-benzyl-1-(2-cyanobenzyl)-4-oxo-1,5-diazacycloundecane-8-carboxamide], the IC50 runs as follows: under setting [1], 3.98 µM; under setting [2], 10 ± 1.2 µM. Moreover, the “Imax, HEK-hNpr1-cGMP-sensor cells” value under setting [3] is on record as −99 ± 6%.
On the same counts, the results for `CN(Cc1ccccc1)C(=O)c1cn2ccnc(-c3ccccc3)c2n1` [JS-14, N-benzyl-N-methyl-8-phenylimidazo[1,2-a]pyrazine-2-carboxamide] are 6.31 µM, 117 ± 75 µM and −286 ± 966%.
